Source: US10570122B2, “Compounds with anti-tumoral activity” (AB Science, priority 2015, dated 2020)

Legend:
HL60 = experiment: CellTiter-Blue cell-based survival/proliferation assay, HL60; conditions: Homo sapiens, HL-60, Leukemia cell line HL60, 48 h, read-out: Anti-tumoral activity (measured IC50) HL60
Procedure, shortened: (§1)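 Compounds, diluted tenfold serially over 0–10 μM, are applied to 1·10^4 seeded cells per well for 48 h at 37 °C. Resorufin formed during a further 4 h with CellTiter-Blue is detected by fluorescence emission at 590 nm.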

PLCPRF5 = experiment: CellTiter-Blue cell-based survival/proliferation assay, PLCPRF5; conditions: Homo sapiens, PLC-PRF-5; PLC_PRF5 liver tumor cell line, 48 h
Procedure, shortened: as §1

AGS = experiment: CellTiter-Blue cell-based survival/proliferation assay, AGS; conditions: Homo sapiens; AGS stomach tumor cell line, 48 h
Procedure, shortened: as §1

SW579 = experiment: CellTiter-Blue cell-based survival/proliferation assay, SW579; conditions: Homo sapiens; SW579 head & neck tumor cell line, 48 h
Procedure, shortened: as §1

KARPAS299 = experiment: CellTiter-Blue cell-based survival/proliferation assay, KARPAS299; conditions: Homo sapiens, KARPAS-299, Lymphoma cell line KARPAS299, 48 h, read-out: Anti-tumoral activity (measured IC50) KARPAS299
Procedure, shortened: as §1

A498 = experiment: CellTiter-Blue cell-based survival/proliferation assay, A498; conditions: Homo sapiens; A498 kidney tumor cell line, 48 h
Procedure, shortened: as §1

BT20 = experiment: CellTiter-Blue cell-based survival/proliferation assay, BT20; conditions: Homo sapiens, BT-20; BT20 breast tumor cell line, 48 h
Procedure, shortened: as §1

HCT116 = experiment: CellTiter-Blue cell-based survival/proliferation assay, HCT116; conditions: Homo sapiens, HCT-116; HCT116 colorectal tumor cell line, 48 h
Procedure, shortened: as §1

A549 = experiment: CellTiter-Blue cell-based survival/proliferation assay, A549; conditions: Homo sapiens; A549 lung tumor cell line, 48 h
Procedure, shortened: as §1

MESSA = experiment: CellTiter-Blue cell-based survival/proliferation assay, MESSA; conditions: Homo sapiens, MES-SA; MESSA ovary tumor cell line, 48 h
Procedure, shortened: as §1

A4513 = experiment: CellTiter-Blue cell-based survival/proliferation assay, A4513; conditions: Homo sapiens; A4513 Ewing cell line, 48 h
Method: (§2) Cell-Based Proliferation Screening of Compounds
(§3) CellTiter-Blue cell-based survival/proliferation assay (Promega G8080) was performed on tumor cell lines. A total of 1·10^4 cells/well/50 μl were seeded in a 96-wells plate. Treatment was initiated by addition of a 2× drug solution of 1/10 serial dilutions ranging from 0 to 10 μM. Cells were grown for 48 h at 37° C. and then incubated with 10 μl/well of Promega CellTiter-Bleue reagent for 4 h at 37° C. The amount of resorufin dye formed was quantified by its fluorescence emission at 590 nm using a scanning multiwell spectrophotometer (OPTIMA, BMG labtech, France). A blank well without cells was used as a background control for the spectrophotometer.

MDAMB231 = experiment: CellTiter-Blue cell-based survival/proliferation assay, MDAMB231; conditions: Homo sapiens, MDA-MB-231; MDAMB231 breast tumor cell line, 48 h
Procedure, shortened: as §1

PC3 = experiment: CellTiter-Blue cell-based survival/proliferation assay, PC3; conditions: Homo sapiens, PC-3; PC3 prostate tumor cell line, 48 h
Procedure, shortened: as §1

OPM2 = experiment: CellTiter-Blue cell-based survival/proliferation assay, OPM2; conditions: Homo sapiens, OPM-2, Myeloma cell line OPM2, 48 h, read-out: Anti-tumoral activity (measured IC50) OPM2
Procedure, shortened: as §1

TOV112D = experiment: CellTiter-Blue cell-based survival/proliferation assay, TOV112D; conditions: Homo sapiens; TOV112D ovary tumor cell line, 48 h
Procedure, shortened: as §1

MELWO = experiment: CellTiter-Blue cell-based survival/proliferation assay, MELWO; conditions: Homo sapiens; MEL_WO melanoma cell line, 48 h
Method: as §2, §3

DLD1 = experiment: CellTiter-Blue cell-based survival/proliferation assay, DLD1; conditions: Homo sapiens, DLD-1; DLD_1 colorectal tumor cell line, 48 h
Procedure, shortened: as §1

REC1 = experiment: CellTiter-Blue cell-based survival/proliferation assay, REC1; conditions: Homo sapiens, Lymphoma cell line REC1, 48 h, read-out: Anti-tumoral activity (measured IC50) REC1
Procedure, shortened: as §1

CLS354 = experiment: CellTiter-Blue cell-based survival/proliferation assay, CLS354; conditions: Homo sapiens, CLS-354; CLS354_4 head & neck tumor cell line, 48 h
Procedure, shortened: as §1

PANC1 = experiment: CellTiter-Blue cell-based survival/proliferation assay, PANC1; conditions: Homo sapiens, PANC-1; PANC_1 pancreas tumor cell line, 48 h
Procedure, shortened: as §1

H1299 = experiment: CellTiter-Blue cell-based survival/proliferation assay, H1299; conditions: Homo sapiens, NCI-H1299; H1299 lung tumor cell line, 48 h
Procedure, shortened: as §1

BXPC3 = experiment: CellTiter-Blue cell-based survival/proliferation assay, BXPC3; conditions: Homo sapiens, BXPC-3; BXPC3 pancreas tumor cell line, 48 h
Procedure, shortened: as §1

CALU6 = experiment: CellTiter-Blue cell-based survival/proliferation assay, CALU6; conditions: Homo sapiens, Calu-6; CALU6 lung tumor cell line, 48 h
Procedure, shortened: as §1

A375 = experiment: CellTiter-Blue cell-based survival/proliferation assay, A375; conditions: Homo sapiens, A-375; A375 melanoma cell line, 48 h
Method: as §2, §3

ACHN = experiment: CellTiter-Blue cell-based survival/proliferation assay, ACHN; conditions: Homo sapiens; ACHN kidney tumor cell line, 48 h
Procedure, shortened: as §1

U87MG = experiment: CellTiter-Blue cell-based survival/proliferation assay, U87MG; conditions: Homo sapiens, U-87 MG; U87_MG glioblastoma cell line, 48 h
Method: as §2, §3

U118 = experiment: CellTiter-Blue cell-based survival/proliferation assay, U118; conditions: Homo sapiens; U118 glioblastoma cell line, 48 h
Method: as §2, §3

HUT78 = experiment: CellTiter-Blue cell-based survival/proliferation assay, HUT78; conditions: Homo sapiens, Lymphoma cell line HUT78, 48 h, read-out: Anti-tumoral activity (measured IC50) HUT78
Procedure, shortened: as §1

HEP2 = experiment: CellTiter-Blue cell-based survival/proliferation assay, HEP2; conditions: Homo sapiens, HEp-2; HEP2 head & neck tumor cell line, 48 h
Procedure, shortened: as §1

HGC27 = experiment: CellTiter-Blue cell-based survival/proliferation assay, HGC27; conditions: Homo sapiens, HGC-27; HGC27 stomach tumor cell line, 48 h
Procedure, shortened: as §1

U2OS = experiment: CellTiter-Blue cell-based survival/proliferation assay, U2OS; conditions: Homo sapiens; U2OS osteosarcoma cell line, 48 h
Method: as §2, §3

HEPG2 = experiment: CellTiter-Blue cell-based survival/proliferation assay, HEPG2; conditions: Homo sapiens; HEPG2 liver tumor cell line, 48 h
Procedure, shortened: as §1

DU145 = experiment: CellTiter-Blue cell-based survival/proliferation assay, DU145; conditions: Homo sapiens, DU-145; DU145 prostate tumor cell line, 48 h
Procedure, shortened: as §1

Measured: IC50

COc1ccc(C)c(Nc2ncc(-c3ccc(-n4cccn4)cc3)s2)c1 [Example 011, (5-Methoxy-2-methyl-phenyl)-[5-(4-pyrazol-1-yl-phenyl)-thiazol-2-yl]-amine]
> 1 µM: all assays above

CCOCc1ccc(C)c(Nc2ncc(-c3ccc(-n4cccn4)c(OC)c3)o2)c1 [Example 002, (5-Ethoxymethyl-2-methyl-phenyl)-[5-(3-methoxy-4-pyrazol-1-yl-phenyl)-oxazol-2-yl]-amine]
> 1 µM: all assays above

CCOCc1ccc(C)c(Nc2ncc(-c3ccc(-n4cccn4)cc3)s2)c1 [Example 004, (5-Ethoxymethyl-2-methyl-phenyl)-[5-(4-pyrazol-1-yl-phenyl)-thiazol-2-yl]-amine]
> 1 µM: all assays above
